According to paper PMC9571711, “New Biologically Hybrid Pharmacophore Thiazolidinone-Based Indole Derivatives: Synthesis, In Vitro Alpha-Amylase and Alpha-Glucosidase along with Molecular Docking Investigations” (Molecules, 2022):

What was measured:
[1] = molecular target: crude intestinal α-glucosidase; assay: In vitro alpha-glucosidase inhibition (p-nitrophenyl-α-D-glucopyranoside); format: biochemical; details: ± SEM
Method: 3.6. Alpha-glucosidase inhibition protocol
α-Glucosidase inhibitory activities was determined as per reported methods. 10 μL of test samples (5 mg/mL DMSO solution) were altered in 100 μL of 100 mM-phosphate buffer (pH 6.8) in 96-well microplate and incubated with 50 μL of crude intestinal α-glucosidase for 5 min before 50μL substrate (5 mM, p-nitrophenyl-α-D-glucopyranoside prepared in same buffer) was […]
plus384) for 5 min after incubation with substrate. Individual blanks for test samples were prepared to correct background absorban ce where substrate was replaced with 50μL of buffer.
Control sample contained 10 μL DMSO in place of test samples. Percentage of enzyme inhibition was calculated as (1-B/A) x 100 where A represents absorbance of control without test samples, and B represents absorbance in presence of test samples. […]

SMILES	melting point [°C]	IC50 [1] [µM]
O=C1N/C(=N/c2nccs2)S/C1=C\c1cc2[nH]ccc2c(Cl)c1[N+](=O)[O-] [Compound 3]	235 to 237	8.7 ± 0.2
O=C1N/C(=N/c2nccs2)S/C1=C/c1cc(F)c2cc[nH]c2c1 [Compound 4, (2Z,5E)-5-((4-fluoro-1H-indol-6-yl)methylene)-2-(thiazol-2-ylimino)thiazolidin-4-one]	237 to 239	2.7 ± 0.7
O=C1NC(=Nc2nccs2)SC1=Cc1cc2[nH]ccc2cc1F [Compound 5, (2Z,5E)-5-((5-fluoro-1H-indol-6-yl)methylene)-2-(thiazol-2-ylimino)hiazolidine-4-one]	234 to 236	–
O=C1N/C(=N/c2nccs2)S/C1=C\c1cc(C(F)(F)F)c2cc[nH]c2c1O [Compound 6]	238 to 240	4.5 ± 0.7
O=C1N/C(=N/c2nccs2)S/C1=C\c1cc(O)c2cc[nH]c2c1O [Compound 7]	238 to 241	3.5 ± 0.8
CN(C)c1cc(/C=C2\S/C(=N\c3nccs3)NC2=O)cc2[nH]ccc12 [Compound 9]	234 to 237	23.2 ± 0.4
N#Cc1cc(/C=C2\S/C(=N\c3nccs3)NC2=O)cc2[nH]ccc12 [Compound 10]	239 to 242	24.6 ± 0.2
O=C1N/C(=N/c2nccs2)S/C1=C\c1cc2[nH]ccc2c(Cl)c1Cl [Compound 14]	231 to 233	13.5 ± 0.4
O=C1N/C(=N/c2nccs2)S/C1=C\c1cc2[nH]ccc2c(Cl)c1Br [Compound 15]	241 to 243	28.4 ± 0.8
Cc1c(Br)c(/C=C2\S/C(=N\c3nccs3)NC2=O)cc2[nH]ccc12 [Compound 17]	242 to 245	31.5 ± 0.5
O=C1N/C(=N/c2nccs2)S/C1=C\c1c(O)cc2cc[nH]c2c1Br [Compound 20, (2Z,5Z)-5-((7-bromo-5-hydroxy-1H-indol-6-yl)methylene)-2-(thiazol-2-ylimino)thiazolidin-4-one]	234 to 237	29.4 ± 0.9

Now from value to compound:

melting point [°C]	IC50 [1] [µM]	SMILES
238 to 241	8.7 ± 0.8	COc1cc2cc[nH]c2c(O)c1/C=C1\S/C(=N\c2nccs2)NC1=O [Compound 8]
236 to 239	7.85 ± 0.2	O=C1N/C(=N/c2nccs2)S/C1=C\c1c(O)cc2cc[nH]c2c1Cl [Compound 11]
236 to 239	9.1 ± 0.3	O=C1N/C(=N/c2nccs2)S/C1=C\c1cc(O)c2cc[nH]c2c1Cl [Compound 12]
240 to 242	26.7 ± 0.3	O=C1N/C(=N/c2nccs2)S/C1=C\c1cc(Br)c2cc[nH]c2c1Cl [Compound 16]
239 to 242	23.3 ± 0.4	Cc1c(/C=C2\S/C(=N\c3nccs3)NC2=O)cc2[nH]ccc2c1Br [Compound 18]
–	19.8 ± 0.6	O=C1N/C(=N/c2nccs2)S/C1=C\c1cccc(O)c1 [Compound 19]
